Laboratory results: patent US8927499B2, “Glycine derivative capable of inhibiting melanin formation and composition using the same” (Corum Inc., priority 2010, dated 2015)
Where a SMILES comes first, the peptide text is derived from it. [ ]: non-standard residue; d: D form. Sar = CNCC(=O)O

Legend:
[1] = Color stability test (accelerated, 45° C. oven); type: physicochemical
Description: The test samples (compounds (II), (III), and (IV)) and the reference sample are separately dissolved in water and a buffer solution with pH=6 to prepare 0.5 wt % solutions. The buffer solution with pH=6 is a mixture solution of 3.8 ml 0.1M citric acid and 16.2 ml citrate. […] of a test sample are dissolved in the mixture solution to prepare a 0.5 wt % solution. Then, the solutions are placed in a 45° C. oven to perform an accelerated color stability test. After 14 and 28 days, the spectrophotometer is used to measure the light transmittance of these solutions at 440 nm.

B16-F10 cells = assay: Melanogenesis inhibition test; type: cell-based, Mus musculus; conditions: 3 days, OD 405 nm, tyrosine + α-MSH stimulated
Description: Melanogenesis Inhibition Test In the melanogenesis inhibition test, Kojic acid is used as the positive control. Compounds (II), (III), and (IV) and ascorbic acid derivative are evaluated regarding their whitening effect under a concentration of no cytotoxicity to test the melanogenesis inhibiting ability. B16-F10 B16-F10 cells are placed in a 96-well plate and each well comprises 5000 cells (5000 cells/well). The cells are incubated at 37° C. in 5% CO2 and 10% FBS DMEM (Fetal Bovine Serum Dulbecco's modified Eagle's medium) overnight to allow the cells to attach to the wells. Melanin production rate (%) is defined by the following equation: [formula] where ODT represents the optical density of the test sample at the wavelength 405 nm by the spectrophotometer; ODB represents the optical density of the blank control at 405 nm; ODN represents the optical density of the negative control at 405 nm. The negative control comprises 0.1 mg/ml of tyrosine and 1 μM of α-MSH (α-melanocyte stimulating hormone). The blank control comprises 0.1 mg/ml of tyrosine but no α-MSH. The test sample is prepared by stocking 5 wt % of compound (II), (III), or (IV) in phenol red free DMEM and 5 wt % FBS no phenol red DMEM with 0.1 mg/ml tyrosine and 1 μM α-MSH is prepared and filtered by a 0.22 μm filter. 0.1 mg/ml tyrosine may cause the medium over saturated and thus centrifugal filtration is required. The testing sample was prepared in the medium mentioned above. Until cells were at full confluence, they were treated with test samples and reference samples (prepared above) 100 μL each well for 3 days. After 3 days incubation, 100 μL 1N NaOH is added in each well. The solution is placed on a shaking table at least 10 minutes. The optical density of the test sample at 405 nm is measured. The positive control is Kojic acid (500 ppm concentration). Based on student's t-test, the P value is less than 0.05.

[2] = system: 3T3 (Swiss albino mouse fibroblast) cells; assay: Cytotoxicity test by MTT assay (3T3); type: cell-based; conditions: 3T3 and B16-F10 cells, compared with ascorbic acid derivative known to have no apparent cytotoxicity
Description: The cytotoxicity test is evaluated by MTT assay.

[3] = 0.5 wt % aqueous solution, 14 days
[4] = 0.5 wt % aqueous solution, 28 days
[5] = 0.5 wt % in citric acid buffer solution pH = 6, 14 days
[6] = 0.5 wt % in citric acid buffer solution pH = 6, 28 days

Structure (SMILES)	Transmittance % (440 nm) [1, 3] [%]	Transmittance % (440 nm) [1, 4] [%]	Transmittance % (440 nm) [1, 5] [%]	Transmittance % (440 nm) [1, 6] [%]	melanin production rate % ± standard deviation (B16-F10 cells; sample concentration 0.2%) [%]	melanin production rate % ± standard deviation (B16-F10 cells; sample concentration 0.4%) [%]	safety of using (cytotoxicity) [2]
O=C1O[C@H]([C@@H](O)CO)C(O)=C1O [Ascorbic acid]	37.8	20.8	0.7	2.1			
CC(=O)NCC(=O)NCCC(=O)O [Compound (II), 3(2-acetylamino-acetylamino)-propionic acid]	98.9	99.8	99.4	99.3	64.7 ± 12.8	11.0 ± 2.9	the same as that of ascorbic acid derivative
CC(=O)NCC(=O)NCCCC(=O)O [Compound (III), 4-(2-Acetylamino-acetylamino)-butyric acid]	99.6	99.5	100	99.9	70.4 ± 10.0	14.2 ± 3.0	the same as that of ascorbic acid derivative
CC(=O)NCC(=O)N(C)CC(=O)O [Compound (IV), [(2-Acetylamino-acetyl)-methyl-amino]-acetic acid] (Ac-Gly-[Sar]-OH)	99.7	100	100	100	60.8 ± 22.3	15.0 ± 5.6	the same as that of ascorbic acid derivative
O=c1cc(CO)occ1O [Kojic acid]	94.9	81	34.8	4.0			
OC[C@H]1O[C@@H](Oc2ccc(O)cc2)[C@H](O)[C@@H](O)[C@@H]1O [arbutin]	96.7	95.4					
O=C1O[C@H]([C@@H](O)CO)C(O)=C1O[C@H]1O[C@H](CO)[C@@H](O)[C@H](O)[C@H]1O [ascorbic acid 2-glucoside (AA2G), ascorbic acid 2-glucoside]	97.8	96.9			86.8 ± 3.4	76.2 ± 10.5	
O=C1O[C@H]([C@@H](O)CO)C(O)=C1OP(=O)([O-])[O-].[Mg+2] [ascorbic acid 2-phosphate magnesium]			85.6	80.9	105.3 ± 3.4	88.4 ± 11.4	
NCCC(=O)N[C@@H](Cc1cnc[nH]1)C(=O)O [carnosine]					129 ± 1.7	141 ± 10.5	
CCOC1=C(O)C(=O)O[C@@H]1[C@@H](O)CO [ethyl ascorbic acid]			98.6	97.5	86.4 ± 2.6	78.9 ± 6.3	
